Where “and” joins values, the source holds several entries; their conditions need not be identical. Equal values may be shown once. Where a name gives a salt, the structure may show the parent alone.
Legend:
[1] = system: lymphocytic leukemia P388; assay: Lymphocytic Leukemia P388 Test; assay type: in vivo, DBA/2 mice
Protocol: Lymphocytic Leukemia P388 Test
The animals used were DBA/2 mice all of one sex, weighing a minimum of 17 g and all within a 3 g weight range. There were 5 or 6 animals per test group. The tumor transplant was by intraperitoneal injection of 0.1 ml of dilute ascitic fluid containing 10^6 cells of lymphocytic leukemia P388. The test compounds were administered intraperitoneally on days 1, 5 and 9 (relative to tumor inoculation) at various doses. The animals were weighed and survivors were recorded on a regular basis for 30 days. The median survival time and the ratio of survival time for treated (T)/control (C) animals were calculated. The positive control compound was 1,4-dihydroxy-5,8-bis--[ [2-(2-hydroxyethylamino)ethyl ]amino]anthraquinone, dihydrochloride (U.S. Patent 4,197,249) given at the indicated doses by injection.

melanotic melanoma B16 = assay: Melanotic Melanoma B16 Test; assay type: in vivo, C57BC/6 mice
Protocol: The animals used were C57BC/6 mice, all of the same sex, weighing a minimum of 17 g and all within a 3 g weight range. There were normally 10 animals per test group. A 1.0 g portion of melanotic melanoma B16 tumor was homogenized in 10 ml of cold balanced salt solution and a 0.5 ml aliquot of the homogenate was implanted intraperitoneally into each of the test mice. The test compounds were administered intraperitoneally on days one through nine (relative to tumor inoculation) at various doses. The animals were weighed and survivors recorded on a regular basis for 60 days. The median survival time and the ratio of survival time for treated (T)/control (C) animals were calculated. The positive control compound was 1,4-dihydroxy-5,8-bis[[2-(2-hydroxyethylamino)-ethyl]amino]anthraquinone, dihydrochloride (U.S. Patent 4,197,249) given at the indicated doses by injection.

[2] = Dose 0.2 mg/kg intraperitoneally on days 1, 5 and 9
[3] = Dose 0.8 mg/kg intraperitoneally on days 1, 5 and 9
[4] = Dose 3 mg/kg intraperitoneally on days 1, 5 and 9
[5] = Dose 12 mg/kg intraperitoneally on days 1, 5 and 9
[6] = Dose 50 mg/kg intraperitoneally on days 1, 5 and 9
[7] = Dose 1.5 mg/kg intraperitoneally on days one through nine
[8] = Dose 6 mg/kg intraperitoneally on days one through nine
[9] = Dose 25 mg/kg intraperitoneally on days one through nine
[10] = Dose 100 mg/kg intraperitoneally on days one through nine
[11] = Dose 0.025 mg/kg intraperitoneally on days 1, 5 and 9, dihydrochloride, 0.025 mg/kg
[12] = Dose 0.1 mg/kg intraperitoneally on days 1, 5 and 9, dihydrochloride, 0.1 mg/kg
[13] = Dose 0.4 mg/kg intraperitoneally on days 1, 5 and 9, dihydrochloride, 0.4 mg/kg
[14] = Dose 1.6 mg/kg intraperitoneally on days 1, 5 and 9, dihydrochloride, 1.6 mg/kg
[15] = Dose 0.025 mg/kg by injection, dihydrochloride, 0.025 mg/kg
[16] = Dose 0.1 mg/kg by injection, dihydrochloride, 0.1 mg/kg
[17] = Dose 0.2 mg/kg intraperitoneally on days one through nine
[18] = Dose 0.4 mg/kg by injection, dihydrochloride, 0.4 mg/kg
[19] = Dose 0.8 mg/kg intraperitoneally on days one through nine
[20] = Dose 1.6 mg/kg by injection, dihydrochloride, 1.6 mg/kg
[21] = Dose 200 mg/kg intraperitoneally on days 1, 5 and 9
[22] = Dose 50 mg/kg intraperitoneally on days one through nine
[23] = Dose 3 mg/kg intraperitoneally on days one through nine
[24] = Dose 12 mg/kg intraperitoneally on days one through nine

Q: What does the source list for `CCOC(=O)NCCNc1ccc(NCCNC(=O)OCC)c2c1C(=O)c1c(O)ccc(O)c1C2=O` [[(9,10-Dihydro-5,8-dihydroxy-9,10-dioxo-1,4 anthracenediyl)bis(imino-2,1-ethanediyl)]bis-[carbamic acid]diethyl ester]?
A: Median Survival [1, 2]: 11 days; T/C x 100 (%) [1, 2]: 110%; Median Survival [1, 3]: 14 days; T/C x 100 (%) [1, 3]: 140%; Median Survival [1, 4]: 17 days; T/C x 100 (%) [1, 4]: 170%; Median Survival [1, 5]: 21 days; T/C x 100 (%) [1, 5]: 210%; Median Survival [1, 6]: 21.5 days; T/C x 100 (%) [1, 6]: 215%; Median Survival (melanotic melanoma B16; [7]): 29.5 days; T/C x 100 (%) (melanotic melanoma B16; [7]): 156%; Median Survival (melanotic melanoma B16; [8]): 39.5 days; T/C x 100 (%) (melanotic melanoma B16; [8]): 209%; Median Survival (melanotic melanoma B16; [9]): >60 days; T/C x 100 (%) (melanotic melanoma B16; [9]): >317%; Median Survival (melanotic melanoma B16; [10]): 38.5 days; T/C x 100 (%) (melanotic melanoma B16; [10]): 204%

Q: How did the “Median Survival” value [1, 11] turn out when `O=C1c2c(O)ccc(O)c2C(=O)c2c(NCCNCCO)ccc(NCCNCCO)c21` [Positive Control, 1,4-dihydroxy-5,8-bis--[ [2-(2-hydroxyethylamino)ethyl]amino]anthraquinone, dihydrochloride, reference compound] was run?
A: The value was 17 days and 18 days and 16 days.

Q: What about the “T/C x 100 (%)” value [1, 11] of the same molecule?
A: The value was 170% and 171% and 145%.

Q: What about the “Median Survival” value [1, 12] of the same molecule?
A: Its value is 25.5 days and 14.5 days and 16.5 days and 21.5 days.

Q: What about the “T/C x 100 (%)” value [1, 12] of the same molecule?
A: The value was 255% and 132% and 150% and 205% and 232%.

Q: And the “Median Survival” value [1, 2]?
A: The value was 14.5 days.

Q: What about the “T/C x 100 (%)” value ([1]; Dose 0.2 mg/kg intraperitoneally on days 1, 5 and 9, dihydrochloride, 0.2 mg/kg) of the same molecule?
A: The value was 153% and 126%.

Q: What about the “Median Survival” value [1, 13] of the same molecule?
A: The value was 19.5 days and 27 days and >30 days and 19 days and 26.5 days.

Q: And the “T/C x 100 (%)” value [1, 13]?
A: Its value is 205% and 169% and 270% and >273% and 173% and 252%.

Q: And the “Median Survival” value [1, 3]?
A: The value was 18 days.

Q: And the “T/C x 100 (%)” value ([1]; Dose 0.8 mg/kg intraperitoneally on days 1, 5 and 9, dihydrochloride, 0.8 mg/kg)?
A: The value was 189% and 156%.

Q: And the “Median Survival” value [1, 14]?
A: The value was >30 days and 19.5 days.

Q: What about the “T/C x 100 (%)” value [1, 14] of the same molecule?
A: The value was >316% and >261% and >300% and >273% and >286% and 177%.

Q: And the “Median Survival” value ([1]; Dose 3.2 mg/kg by injection)?
A: The value was >30 days.

Q: What about the “T/C x 100 (%)” value ([1]; Dose 3.2 mg/kg by injection, dihydrochloride, 3.2 mg/kg) of the same molecule?
A: Its value is >261% and >316%.

Q: And the “Median Survival” value (melanotic melanoma B16; [15])?
A: The value was 28 days and 26 days and 33 days and 28.5 days.

Q: And the “T/C x 100 (%)” value (melanotic melanoma B16; [15])?
A: The value was 137% and 161% and 133%.

Q: What about the “Median Survival” value (melanotic melanoma B16; [16]) of the same molecule?
A: Its value is 36 days and 31.5 days and 39 days and 32 days and 42 days.

Q: And the “T/C x 100 (%)” value (melanotic melanoma B16; [16])?
A: Its value is 176% and 166% and 190% and 133% and 195%.

Q: And the “Median Survival” value (melanotic melanoma B16; [17])?
A: Its value is 32 days.

Q: What about the “T/C x 100 (%)” value (melanotic melanoma B16; [17]) of the same molecule?
A: The value was 158%.

Q: And the “Median Survival” value (melanotic melanoma B16; [18])?
A: Its value is 36 days and >60 days and 58 days.

Q: What about the “T/C x 100 (%)” value (melanotic melanoma B16; [18]) of the same molecule?
A: Its value is 178% and >293% and >317% and >250% and 270%.

Q: What about the “Median Survival” value (melanotic melanoma B16; [19]) of the same molecule?
A: Its value is 35 days.

Q: What about the “T/C x 100 (%)” value (melanotic melanoma B16; [19]) of the same molecule?
A: Its value is 173%.

Q: And the “Median Survival” value (melanotic melanoma B16; [20])?
A: Its value is >60 days and 38 days and 37 days.

Q: What about the “T/C x 100 (%)” value (melanotic melanoma B16; [20]) of the same molecule?
A: Its value is >293% and >297% and 200% and >250% and 172%.

Q: Which “Median Survival” value [1, 6] does the source give for `CC(=O)C(=O)NCCNc1ccc(NCCNC(=O)C(C)=O)c2c1C(=O)c1c(O)ccc(O)c1C2=O` [N,N'-[9,10-Dihydro-5,8-dihydroxy-9,10-dioxo-1,4-anthracenediyl)bis(imino-2,1-ethanediyl)]bis-[2-oxopropanamide]] here?
A: The value was 13.5 days.

Q: What about the “T/C x 100 (%)” value [1, 6] of the same molecule?
A: Its value is 123%.

Q: What about the “Median Survival” value [1, 21] of the same molecule?
A: Its value is 16.5 days.

Q: And the “T/C x 100 (%)” value [1, 21]?
A: Its value is 150%.

Q: What about the “Median Survival” value (melanotic melanoma B16; [9]) of the same molecule?
A: The value was 43.5 days.

Q: And the “T/C x 100 (%)” value (melanotic melanoma B16; [9])?
A: The value was 182%.

Q: What about the “Median Survival” value (melanotic melanoma B16; [22]) of the same molecule?
A: Its value is 41 days.

Q: What about the “T/C x 100 (%)” value (melanotic melanoma B16; [22]) of the same molecule?
A: The value was 171%.

Q: And the “Median Survival” value (melanotic melanoma B16; [10])?
A: Its value is 38 days.

Q: What about the “T/C x 100 (%)” value (melanotic melanoma B16; [10]) of the same molecule?
A: The value was 158%.

Q: Which “Median Survival” value [1, 3] does the source give for `CC(=O)OCCN(CCNc1ccc(NCCN(CCOC(C)=O)C(C)=O)c2c1C(=O)c1c(O)ccc(O)c1C2=O)C(C)=O` [N,N'-[5,8-Dihydroxyl,4-anthraquinonylene-bis(imino-ethylene)]bis[N-2-hydroxyethylacetamide-2,2'diacetate]] here?
A: Its value is 11 days.

Q: And the “T/C x 100 (%)” value [1, 3]?
A: The value was 116%.

Q: What about the “Median Survival” value [1, 4] of the same molecule?
A: The value was 10 days.

Q: And the “T/C x 100 (%)” value [1, 4]?
A: Its value is 105%.

Q: What about the “Median Survival” value [1, 5] of the same molecule?
A: The value was 14 days.

Q: What about the “T/C x 100 (%)” value [1, 5] of the same molecule?
A: The value was 147%.

Q: What about the “Median Survival” value [1, 6] of the same molecule?
A: Its value is 16 days.

Q: And the “T/C x 100 (%)” value [1, 6]?
A: Its value is 168%.

Q: And the “Median Survival” value [1, 21]?
A: The value was 17 days.

Q: What about the “T/C x 100 (%)” value [1, 21] of the same molecule?
A: The value was 179%.

Q: What about the “Median Survival” value (melanotic melanoma B16; [19]) of the same molecule?
A: Its value is 21.5 days.

Q: What about the “T/C x 100 (%)” value (melanotic melanoma B16; [19]) of the same molecule?
A: The value was 106%.

Q: And the “Median Survival” value (melanotic melanoma B16; [23])?
A: The value was 21.5 days.

Q: What about the “T/C x 100 (%)” value (melanotic melanoma B16; [23]) of the same molecule?
A: The value was 106%.

Q: What about the “Median Survival” value (melanotic melanoma B16; [24]) of the same molecule?
A: Its value is 20.5 days.

Q: And the “T/C x 100 (%)” value (melanotic melanoma B16; [24])?
A: Its value is 101%.

Q: And the “Median Survival” value (melanotic melanoma B16; [22])?
A: Its value is 21.5 days.

Q: And the “T/C x 100 (%)” value (melanotic melanoma B16; [22])?
A: Its value is 106%.

From patent EP0182135A2, “Novel bis-(substituted amino) anthraquinones” (AMERICAN CYANAMID COMPANY, priority 1984, dated 1986)
